Experimental data reported in ChEMBL document CHEMBL1240387, “In vitro activity of CEM-101, a new fluoroketolide antibiotic, against Chlamydia trachomatis and Chlamydia (Chlamydophila) pneumoniae” (2010).
In brackets after ≈: the same amount, converted by molar mass.

Assays:
[1] = system: Chlamydia pneumoniae; experiment: Antimicrobial activity against Chlamydophila pneumoniae infected in human Hep2 cells after 72 hrs by twofold serial dilution method; type: functional, HEp-2
[2] = system: Chlamydia trachomatis; experiment: Antimicrobial activity against Chlamydia trachomatis after 72 hrs by fluorescence assay; type: functional
[3] = system: Chlamydia pneumoniae; experiment: Antimicrobial activity against Chlamydophila pneumoniae infected in human Hep2 cells after 72 hrs by fluorescence assay; type: functional, HEp-2
[4] = system: Chlamydia trachomatis; experiment: Antimicrobial activity against Chlamydia trachomatis after 72 hrs by twofold serial dilution method; type: functional
[5] = system: Mycoplasma genitalium; experiment: Antimicrobial activity against Mycoplasma genitalium by microtiter plate reader assay; type: functional; conditions: Mycoplasmoides genitalium
[6] = system: Neisseria gonorrhoeae; experiment: Antimicrobial activity against Neisseria gonorrhoeae by microtiter plate reader assay; type: functional
[7] = system: Metamycoplasma hominis; experiment: Antimicrobial activity against Mycoplasma hominis by microtiter plate reader assay; type: functional
[8] = system: Ureaplasma urealyticum; experiment: Antimicrobial activity against Ureaplasma urealyticum by microtiter plate reader assay; type: functional
[9] = system: Mycoplasmoides pneumoniae; experiment: Antimicrobial activity against Mycoplasma pneumoniae by microtiter plate reader assay; type: functional

| MIC50 [1] | MIC90 [1] | MIC50 [4] | MIC90 [4] | MIC [5] | MIC [6] | MIC [7] | MIC [8] | MIC [9] | SMILES | MBC90 [2] | MBC90 [3] |
| --- | --- | --- | --- | --- | --- | --- | --- | --- | --- | --- | --- |
| 60 ng/mL | 60 ng/mL | 60 ng/mL | 60 ng/mL | – | – | – | – | – | C[C@H]1c2cccc(O)c2C(=O)C2=C(O)[C@]3(O)C(=O)C(C(N)=O)=C(O)[C@@H](N(C)C)[C@@H]3[C@@H](O)[C@@H]21.O [DOXYCYCLINE] | 60 ng/mL | 60 ng/mL |
| 60 ng/mL (≈ 73.9 nM) | 60 ng/mL (≈ 73.9 nM) | 60 ng/mL (≈ 73.9 nM) | 60 ng/mL (≈ 73.9 nM) | – | – | – | – | – | CC[C@H]1OC(=O)[C@H](C)C(=O)[C@H](C)[C@@H](O[C@@H]2O[C@H](C)C[C@H](N(C)C)[C@H]2O)[C@](C)(OC)C[C@@H](C)C(=O)[C@H](C)[C@H]2N(CCCCn3cnc(-c4cccnc4)c3)C(=O)O[C@]12C [TELITHROMYCIN] | 60 ng/mL (≈ 73.9 nM) | 60 ng/mL (≈ 73.9 nM) |
| 250 ng/mL (≈ 296 nM) | 250 ng/mL (≈ 296 nM) | 250 ng/mL (≈ 296 nM) | 250 ng/mL (≈ 296 nM) | ≤ 0.03 ng/mL | ≤ 250 ng/mL | ≤ 0.03 ng/mL | 0.03 ng/mL (≈ 0.0355 nM) | ≤ 500 ng/mL | CC[C@H]1OC(=O)[C@@](C)(F)C(=O)[C@H](C)[C@@H](O[C@@H]2O[C@H](C)C[C@H](N(C)C)[C@H]2O)[C@](C)(OC)C[C@@H](C)C(=O)[C@H](C)[C@H]2N(CCCCn3cc(-c4cccc(N)c4)nn3)C(=O)O[C@]12C [SOLITHROMYCIN] | 250 ng/mL (≈ 296 nM) | 250 ng/mL (≈ 296 nM) |
| 125 ng/mL (≈ 167 nM) | 125 ng/mL (≈ 167 nM) | 125 ng/mL (≈ 167 nM) | 125 ng/mL (≈ 167 nM) | – | – | – | – | – | CC[C@H]1OC(=O)[C@H](C)[C@@H](O[C@H]2C[C@@](C)(OC)[C@@H](O)[C@H](C)O2)[C@H](C)[C@@H](O[C@@H]2O[C@H](C)C[C@H](N(C)C)[C@H]2O)[C@](C)(O)C[C@@H](C)CN(C)[C@H](C)[C@@H](O)[C@]1(C)O [AZITHROMYCIN] | – | – |
| 60 ng/mL (≈ 80.2 nM) | 60 ng/mL (≈ 80.2 nM) | 60 ng/mL (≈ 80.2 nM) | 60 ng/mL (≈ 80.2 nM) | – | – | – | – | – | CC[C@H]1OC(=O)[C@H](C)[C@@H](O[C@H]2C[C@@](C)(OC)[C@@H](O)[C@H](C)O2)[C@H](C)[C@@H](O[C@@H]2O[C@H](C)C[C@H](N(C)C)[C@H]2O)[C@](C)(OC)C[C@@H](C)C(=O)[C@H](C)[C@@H](O)[C@]1(C)O [CLARITHROMYCIN] | 60 ng/mL (≈ 80.2 nM) | 60 ng/mL (≈ 80.2 nM) |
